This assay deals with cerebral metabolism. In words: FDG-PET metabolic brain network analysis (NRRP/PDRP), phase I trial. The assay is classed as in vivo, human. Here is the method: PET-MRI imaging was performed with a 3T Siemens Biograph mMR scanner, software version VE11P-SPO3. Subjects were administered 200 MBq of 18F Fluorodeoxyglucose (FDG) before being positioned in the scanner. After 31P-MRS spectra had been acquired, an 8-channel Siemens mMR Head coil was used for further MR imaging, which was performed simultaneously with FDG PET. In all subjects, PET acquisition began 25 to 30 minutes after the injection of FDG and lasted 30 minutes. The resulting emission data were reconstructed using Siemens HD-PET algorithm with Siemens HiRes Brain MRAC, with voxel size of 2.3×2.3×5.0 mm^3. PET images were anonymized and archived as DICOM files with a matrix size of 344×344×127 and an isotropic voxel size of 2.09×2.09×2.03 mm^3.
FDG-PET scans were transferred electronically to the Center for Neurosciences at The Feinstein Institutes for Medical Research (Manhasset, NY, USA) and analyzed using automated computing pipelines implemented in MATLAB 7.5 (MathWorks, Natick, MA) using in-house Scan Analysis and Visualization (ScAnVP) software (available at http://feinsteinneuroscience.orq). Images were first pre-processed using Statistical Parametric Mapping (SPM8) software (http://fil.ion.ucl.ac.uk/spm; Wellcome Centre for Human Neuroimaging, London, UK). Of the 30 participants, the baseline scan of one NR subject was excluded on technical grounds. In the remaining subjects, FDG-PET scans acquired at visit 1 and visit 2 were aligned to produce a mean image, which was spatially normalized in standard Montreal Neurological Institute (MNI) anatomic space along with the individual scans from each time point. The normalized images were then smoothed with a 10-mm Gaussian filter in three dimensions to enhance the signal to noise ratio.
For the PET-analyses, the subjects in the NR group were classified based on their cerebral NAD-response, measured by 31P-MRS. Subjects showing increased cerebral NAD levels at visit 2 were termed “MRS-responders,” whereas subjects showing no increase in cerebral NAD were termed “MRS non-responders”.
To identify an NR-related metabolic pattern (NRRP), we analyzed paired metabolic scan data from the 10 MRS responders in the NR group (ATP-beta; NAD-total; ATP-alpha; ATP-gamma; PCr (Phosphocreatine); MP (membrane phospholipids); GPC (glycerophosphocholine); GPE (glycerophosphoethanolamine); Pi (inorganic phosphate); Pc (phosphocholine); PE (phosphoethanolamine); Total NAD/PCr; Total NAD/ATP-alpha) using ordinal trends/canonical variates analysis (OrT/CVA), a supervised form of principal component analysis (PCA) (Habeck C, Krakauer J W, Ghez C, Sackeim H A, Eidelberg D, Stern Y et al. A new approach to spatial covariance modeling of functional brain imaging data: ordinal trend analysis. Neural computation 2005; 17: 1602-1645).
This multivariate approach is designed to detect and quantify regional covariance patterns (i.e., metabolic networks) for which expression values (i.e., subject scores) increase or decrease with treatment in all or most of the subjects (Niethammer M, Tang C C, Vo A, Nguyen N, Spetsieris P, Dhawan V et al. Gene therapy reduces Parkinson's disease symptoms by reorganizing functional brain connectivity. Science translational medicine 2018; 10; Ko J H, Feigin A, Mattis P J, Tang C C, Ma Y, Dhawan V et al. Network modulation following sham surgery in Parkinson's disease. The Journal of clinical investigation 2014; 124: 3656-3666). […] Likewise, the reliability of the voxel loadings (i.e., region weights) on the resulting network topography was assessed using bootstrap resampling procedures (Mure H, Hirano S, Tang C C, Isaias I U, Antonini A, Ma Y et al. Parkinson's disease tremor—related metabolic network: characterization, progression, and treatment effects. Neuroimage 2011; 54: 1244-1253; Habeck C, Stern Y. Multivariate data analysis for neuroimaging data: overview and application to Alzheimer's disease. Cell biochemistry and biophysics 2010; 58: 53-67). […]

Structures are written as SMILES.

On to `NC(=O)c1ccc[n+]([C@@H]2O[C@H](CO)[C@@H](O)[C@H]2O)c1` [NR, nicotinamide riboside], for which the “NR-related metabolic pattern (NRRP) topography” value (10 MRS responders, OrT/CVA, PC1) was “bilateral metabolic reductions in the caudate and putamen, extending into the adjacent globus pallidus, and in the thalamus”. Moreover, the “Zmax, reduced metabolic activity as part of the NRRP network” value (“Zmax, reduced metabolic activity as part” below) (Anterior Cingulate (left), BA 32, MNI −4,44,18) turned out to be 2.2; the “Zmax, reduced metabolic activity as part” value (Anterior Cingulate (right), BA 24, MNI 4,8,48) is listed as 2.3; the “Zmax, reduced metabolic activity as part” value (Anterior Cingulate (right), BA 32, MNI 4,46,−8) was determined as 2.6; the “Zmax, reduced metabolic activity as part” value (Lentiform Nucleus (left), Putamen, MNI −20,10,−8) was found to be 3.5; the “Zmax, reduced metabolic activity as part” value (Lentiform Nucleus (left), Putamen, MNI −28,−2,−2) is 3.3; the “Zmax, reduced metabolic activity as part” value (Lentiform Nucleus (right), Putamen, MNI 22,10,−8) was found to be 3.9. Moreover, the “Zmax, reduced metabolic activity as part” value (Middle Frontal Gyrus (left), BA 8, MNI −26,30,42) worked out at 1.9; the “Zmax, reduced metabolic activity as part” value (Posterior Cingulate (bilateral), BA 31, MNI 0,−30,36) came to 3.5; the “Zmax, reduced metabolic activity as part” value (Precuneus (left), BA 7, MNI −6,−72,40) worked out at 2.6; the “Zmax, reduced metabolic activity as part” value (Prefrontal Cortex (right), BA 9, MNI 44,16,30) is 3.0; the “Zmax, reduced metabolic activity as part” value (Superior Frontal Gyrus (left), BA 9, MNI −32,44,28) is 2.5; the “Zmax, reduced metabolic activity as part” value (Superior Frontal Gyrus (left), BA 10, MNI −28,56,6) is recorded as 2.5. The “Zmax, reduced metabolic activity as part” value worked out at 2.5 (Thalamus (left), Anterior, MNI −10,−22,4) and 3.0 (Thalamus (right), Medial Dorsal, MNI 8,−18,4). Moreover, the “subjects with increased NRRP expression” value (MRS responders, p=0.018 permutation test) was 8 of 10. In addition, the “ordinal trend in NRRP expression” value (NR group as a whole, p=0.027 permutation test) is on record as “remained significant”. For the same molecule, the “correlation (r) of changes in NRRP expression with changes in UPDRS motor ratings, after excluding one data point” value (NR group, excluding greatest increase in UPDRS motor score, p=0.048) is −0.556. Also, where the note is “NR group, p=0.026”, the “correlation (r) of changes in NRRP expression with changes in UPDRS motor ratings” value is listed as −0.59. For the same molecule, for the setting “NR group, p=0.73”, the “correlation of PDRP changes with clinical outcome” value is on record as “no correlation”.

The record behind these values is patent US20240366648A1, “NAD-AUGMENTATION THERAPY FOR PARKINSON'S DISEASE” (Vestlandets Innovasjonsselskap AS (VIS), priority 2021, published 2024).
